{
  "source": "patent US20090317496A1",
  "about": "“Method for Preventing and Treating the Disease Caused by Vascular Damage and the Use Thereof” (priority 2005, published 2009)",
  "key": {"[1]": {"tested_on": "retinal vascular endothelial cell", "assay": "MTT assay, apoptosis of retinal vascular endothelial cell caused by the lack of serum", "format": "cell-based, human", "details": "FBS free medium, 10 μg/ml, 24 hours; FIG. 3c", "protocol": "(§1) The HUVEC (human umbilical venous endothelial cell) and retinal vascular endothelial cell (cell-systems, USA) were incubated at M199 medium containing 20% (w/v) FBS (HyClone, Canada), 100 units/m ? of penicillin (Invitrogen, USA), 100 μg/m ? of streptomycin (Invitrogen, USA), 3 ng/m ? of bFGF (basic fibroblast growth factor, Upstate Biotechnology, USA) and 5 units/m ? of heparin (Life Technologies, USA) under 5% CO2 gas condition at 37° C. (See FIG. 2a and FIG. 2b).\n(§2) To investigate the suppression effect of SG was determined by (3-[4,5-dimethylthiazol-2-yl]-2,5-diphenyl tetrazolium bromide (MTT) assay method disclosed in the literature (Wang Z et al., Biol., Pharm. Bull., 24, pp 159-162, 2001).\n(§3) HUVEC and retinal vascular endothelial cell were spread on 24-well plates (3×10^4 cells/well) and were incubated for 24 hours. The mediums were substituted with new medium containing 20% (w/v) FBS and FBS free medium respectively. The FBS free medium was treated with various concentrations of SG, i.e., 0, 1, 5, 10, 20 μg/m ? . The medium was incubated for 24 hours. After the incubation, MTT assay was performed.\n(§4) To investigate the suppressive effect of SG, Rb1, Rg1, Re, Rg3, Rg5 and Rk1 on the cell apoptosis if retinal vascular endothelial cell caused by the lack of serum, the effect were determined by (3-[4,5-dimethylthiazol-2-yl]-2,5-diphenyl tetrazolium bromide (MTT) assay method disclosed in the literature (Wang Z et al., Biol., Pharm. Bull., 24, pp 159-162, 2001).\n(§5) HUVEC and retinal vascular endothelial cell were spread on 24-well plates (3×10^4 cells/well) and were incubated for 24 hours respectively. The mediums were substituted with new medium containing 20% (w/v) FBS and FBS free medium respectively. The FBS free medium was treated with 10 μg/m ? of SG, Rb1, Rg1, Re, Rg3, Rg5 and Rk1 and the medium was incubated for 24 hours. After the incubation, MTT assay was performed."}, "[2]": {"tested_on": "HUVEC (human umbilical venous endothelial cell)", "assay": "MTT assay, apoptosis of HUVEC caused by the lack of serum", "format": "cell-based", "details": "FBS free medium, 10 μg/ml, 24 hours; FIG. 3c", "protocol": "as §1, §2, §3, §4, §5"}, "[3]": {"tested_on": "vascular endothelial cells (HUVEC)", "assay": "MTT assay, Rk1 on apoptosis of vascular endothelial cell caused by the lack of serum", "format": "cell-based, human", "details": "FBS free medium, Rk1 0, 0.5, 1, 5, 10 μg/ml, 24 hours; FIG. 4", "protocol": "FIG. 4 is the result of MTT assay showing suppressive effect of Rk1 on the apoptosis of HUVEC in medium,\nas §3, with “Vascular” for “HUVEC and retinal vascular”, “Rk1,” for “SG,”, “0, 0.5,” for “0,”, “10” for “10, 20”, “and” for “. The medium was”"}, "[4]": {"tested_on": "vascular endothelial cells (HUVEC)", "assay": "DAPI staining, DNA fragmentation of vascular endothelial cell caused by the lack of serum", "format": "cell-based, human", "details": "FBS free medium, Rk1 0, 0.5, 1, 5, 10 μg/ml, 24 hours; FIG. 5", "protocol": "FIG. 5 is the result of staining with DAPI showing suppressive effect of Rk1 on the apoptosis of HUVEC in medium,\nVascular endothelial cell were spread on 35 mm dish (1.5×10^5 cells/well) and were incubated for 24 hours. The mediums were substituted with new medium containing 20% (w/v) FBS and FBS free medium respectively. The FBS free medium was treated with various concentrations of Rk1, i.e., 0, 0.5, 1, 5, 10 μg/m ? and incubated for 24 hours. After the incubation, the medium was washed with PBS solution 2 times, fixed with 2% of paraformaldehyde and washed with PBS solution 2 times again. DAPI (4′,6-Diamidino-2-phenylindole-2-HCl. Calbiochem, USA) solution was added thereto, incubated for 30 minutes in darkroom and washed with PBS two times. The DNA fragmentation was measured by fluorescent microscope (Fluorescent microscope, Axioplan2, ZEISS, Germany) after mounting with cover slip."}, "[5]": {"tested_on": "tight junction proteins ZO-1, ZO-2 and occludin", "assay": "Western blot of tight junction proteins in human retinal vascular endothelial cells", "format": "cell-based", "details": "human retinal endothelial cell, FIG. 6a", "protocol": "Human retinal vascular endothelial cell were spread on 60 mm dish (3×10^5 cells/well) and were incubated for 24 hours.\nThe cells were transferred to human endothelial SFM-basal growth medium (Invitrogen, USA), incubated for 24 hours and transferred to new human endothelial SFM-basal growth medium again. The medium was treated with 20 ng/m ? of VEGF (vascular endothelial growth factor) and Rk1, and incubated for 6 hours. After the incubation, the cells were collected to induce lysis and western blot analysis was performed."}, "[6]": {"tested_on": "tight junction proteins ZO-1, ZO-2 and occludin", "assay": "Western blot of tight junction proteins in mouse retina", "format": "in vivo, C57/BL6 mice", "details": "FIG. 6b"}, "[7]": {"tested_on": "tight junction protein ZO-1, ZO-2 and occludin", "assay": "Immunocytochemistry of tight junction proteins in human retinal vascular endothelial cells", "format": "cell-based", "details": "human retinal endothelial cell", "protocol": "Human retinal vascular endothelial cell were spread on 35 mm dish (2×10^5 cells/well) and were incubated for 24 hours. The cells were transferred to human endothelial SFM-basal growth medium (Invitrogen, USA), incubated for 24 hours and transferred to new human endothelial SFM-basal growth medium again. The medium was treated with 20 ng/m ? of VEGF (vascular endothelial growth factor) and Rk1, and incubated for 6 hours. After the incubation, the medium was washed with PBS solution and immunocytochemistry analysis was performed to determine the change of tight junction protein."}, "[8]": {"tested_on": "tight junction protein ZO-1, ZO-2 and occludin", "assay": "Immunocytochemistry of tight junction proteins in mouse retina", "format": "in vivo, C57/BL6 mice"}, "[9]": {"tested_on": "retinal vessel of C57/BL6 mice", "assay": "Angiography with FITC-dextran, permeability of retinal vessel", "format": "in vivo", "details": "FIG. 11", "protocol": "Both of 100 ng of VEGF and 30 μg of Rk1 were injected into the retina of C57/BL6 mice (Orient, Korea). After 24 hours, the mice were anesthetized and FITC-dextran was injected into the heart to allow fluorescent material to flow in blood. […] In the only VEGF-injected mice, it has been confirmed that the fluorescent material was exuded from neighboring tissues around blood vessel caused by the increased permeability of retinal vessel however the exudation in VEGF was recovered by the treatment of Rk1.\nLikewise, it has been also confirmed that the fluorescent material was exuded from neighboring tissues around blood vessel caused by the increased permeability of retinal vessel in diabetes induced mice however the exudation was recovered by the treatment of Rk1."}},
  "data": [
    {"compound": "CC(C)=CCC[C@](C)(O[C@@H]1O[C@H](CO[C@@H]2O[C@H](CO)[C@@H](O)[C@H](O)[C@H]2O)[C@@H](O)[C@H](O)[C@H]1O)[C@H]1CC[C@]2(C)[C@@H]1[C@H](O)C[C@@H]1[C@@]3(C)CC[C@H](O[C@@H]4O[C@H](CO)[C@@H](O)[C@H](O)[C@H]4O[C@@H]4O[C@H](CO)[C@@H](O)[C@H](O)[C@H]4O)C(C)(C)[C@@H]3CC[C@]12C", "note": "[Rb1, ginsenoside Rb1, reference compound]", "values": [
      {"measurement": "apoptosis and cell viability of retinal vascular endothelial cells (MTT assay)", "setting": "[1]", "value": "did not"}
    ]},
    {"compound": "CC(C)=CCC[C@](C)(O[C@@H]1O[C@H](CO)[C@@H](O)[C@H](O)[C@H]1O)[C@H]1CC[C@]2(C)[C@@H]1[C@H](O)C[C@@H]1[C@@]3(C)CC[C@H](O)C(C)(C)[C@@H]3[C@@H](O[C@@H]3O[C@H](CO)[C@@H](O)[C@H](O)[C@H]3O[C@@H]3O[C@@H](C)[C@H](O)[C@@H](O)[C@H]3O)C[C@]12C", "note": "[Re, ginsenoside Re, reference compound]", "values": [
      {"measurement": "apoptosis and cell viability of retinal vascular endothelial cells (MTT assay)", "setting": "[1]", "value": "did not"}
    ]},
    {"compound": "CC(C)=CCC[C@](C)(O[C@@H]1O[C@H](CO)[C@@H](O)[C@H](O)[C@H]1O)[C@H]1CC[C@]2(C)[C@@H]1[C@H](O)C[C@@H]1[C@@]3(C)CC[C@H](O)C(C)(C)[C@@H]3[C@@H](O[C@@H]3O[C@H](CO)[C@@H](O)[C@H](O)[C@H]3O)C[C@]12C", "note": "[Rg1, ginsenoside Rg1, reference compound]", "values": [
      {"measurement": "apoptosis and cell viability of retinal vascular endothelial cells (MTT assay)", "setting": "[1]", "value": "did not"}
    ]},
    {"compound": "CC(C)=CCC[C@](C)(O)[C@H]1CC[C@]2(C)[C@@H]1[C@H](O)C[C@@H]1[C@@]3(C)CC[C@H](O[C@@H]4O[C@H](CO)[C@@H](O)[C@H](O)[C@H]4O[C@@H]4O[C@H](CO)[C@@H](O)[C@H](O)[C@H]4O)C(C)(C)[C@@H]3CC[C@]12C", "note": "[Rg3, ginsenoside Rg3]", "values": [
      {"measurement": "apoptosis and cell viability of HUVEC (MTT assay)", "setting": "[2]", "value": "inhibited the apoptosis"},
      {"measurement": "apoptosis and cell viability of retinal vascular endothelial cells (MTT assay)", "setting": "[1]", "value": "inhibited the apoptosis"}
    ]},
    {"compound": "CC(C)=CC/C=C(\\C)[C@H]1CC[C@]2(C)[C@@H]1[C@H](O)C[C@@H]1[C@@]3(C)CC[C@H](O[C@@H]4O[C@H](CO)[C@@H](O)[C@H](O)[C@H]4O[C@@H]4O[C@H](CO)[C@@H](O)[C@H](O)[C@H]4O)C(C)(C)[C@@H]3CC[C@]12C", "note": "[Rg5, ginsenoside Rg5]", "values": [
      {"measurement": "apoptosis and cell viability of HUVEC (MTT assay)", "setting": "[2]", "value": "inhibited the apoptosis"},
      {"measurement": "apoptosis and cell viability of retinal vascular endothelial cells (MTT assay)", "setting": "[1]", "value": "inhibited the apoptosis"}
    ]},
    {"compound": "C=C(CCC=C(C)C)[C@H]1CC[C@]2(C)[C@@H]1[C@H](O)C[C@@H]1[C@@]3(C)CC[C@H](O[C@@H]4O[C@H](CO)[C@@H](O)[C@H](O)[C@H]4O[C@@H]4O[C@H](CO)[C@@H](O)[C@H](O)[C@H]4O)C(C)(C)[C@@H]3CC[C@]12C", "note": "[Rk1, ginsenoside Rk1]", "values": [
      {"measurement": "apoptosis and cell viability of HUVEC (MTT assay)", "setting": "[2]", "value": "inhibited the apoptosis"},
      {"measurement": "apoptosis and cell viability of retinal vascular endothelial cells (MTT assay)", "setting": "[1]", "value": "inhibited the apoptosis"},
      {"measurement": "apoptosis and cell viability of vascular endothelial cells (MTT assay)", "setting": "[3]", "value": "inhibited the apoptosis"},
      {"measurement": "DNA fragmentation of vascular endothelial cells (DAPI)", "setting": "[4]", "value": "suppressed the DNA fragmentation"},
      {"measurement": "recovering effect on the decrease of tight junction proteins ZO-1, ZO-2 and occludin (western blot)", "setting": "[5]; decrease caused by AGE (advanced glycation end product)", "value": "potent recovering effect"},
      {"measurement": "recovering effect on the decrease of tight junction proteins ZO-1, ZO-2 and occludin (western blot)", "setting": "[5]; decrease caused by VEGF 20 ng/ml, 6 hours", "value": "potent recovering effect"},
      {"measurement": "recovering effect on the decrease of tight junction proteins ZO-1, ZO-2 and occludin (western blot)", "setting": "[6]; decrease caused by VEGF 100 ng, 30 μg Rk1 injected into the retina, 24 hours, mouse", "value": "potent recovering effect"},
      {"measurement": "recovering effect on the decrease of tight junction proteins ZO-1, ZO-2 and occludin (western blot)", "setting": "[6]; decrease caused by diabetes, mouse retina", "value": "potent recovering effect"},
      {"measurement": "recovering effect on the decrease of tight junction protein ZO-1, ZO-2 and occludin (immunocytochemistry)", "setting": "[7]; decrease caused by AGE, FIG. 7", "value": "potent recovering effect"},
      {"measurement": "recovering effect on the decrease of tight junction protein ZO-1, ZO-2 and occludin (immunocytochemistry)", "setting": "[7]; decrease caused by VEGF 20 ng/ml, 6 hours, FIG. 8", "value": "potent recovering effect"},
      {"measurement": "recovering effect on the decrease of tight junction protein ZO-1, ZO-2 and occludin (immunocytochemistry)", "setting": "[8]; decrease caused by VEGF 100 ng, 30 μg Rk1 injected into the retina, 24 hours, mouse, FIG. 9", "value": "potent recovering effect"},
      {"measurement": "recovering effect on the decrease of tight junction protein ZO-1, ZO-2 and occludin (immunocytochemistry)", "setting": "[8]; decrease caused by diabetes, mouse retina, FIG. 10", "value": "potent recovering effect"},
      {"measurement": "exudation of fluorescent material (increased permeability of retinal vessel), angiography", "setting": "[9]; VEGF 100 ng and 30 μg Rk1 injected into the retina, 24 hours, mouse", "value": "recovered"},
      {"measurement": "exudation of fluorescent material (increased permeability of retinal vessel), angiography", "setting": "[9]; diabetes induced mice", "value": "recovered"}
    ]}
  ]
}
